Data: publication PMC10163056, “Vortioxetine hydrobromide inhibits the growth of gastric cancer cells in vivo and in vitro by targeting JAK2 and SRC” (Oncogenesis, 2023)
Where a name gives a salt, the structure may show the parent alone.

Tests used:
SRC = SRC (Homo sapiens, UniProt P12931); assay: Kinase-Lumi luminescent kinase assay; also in vitro kinase assay with recombinant SRC and STAT3, bead pull-down of recombinant protein, CETSA in AGS and HGC27 cells; format: biochemical
JAK2 = JAK2 (Homo sapiens, UniProt O60674); assay: Kinase-Lumi luminescent kinase assay; also in vitro kinase assay with recombinant JAK2 and STAT3, bead pull-down of recombinant protein, CETSA in AGS and HGC27 cells; format: biochemical
Chain of JAK2 (O60674 whole entry): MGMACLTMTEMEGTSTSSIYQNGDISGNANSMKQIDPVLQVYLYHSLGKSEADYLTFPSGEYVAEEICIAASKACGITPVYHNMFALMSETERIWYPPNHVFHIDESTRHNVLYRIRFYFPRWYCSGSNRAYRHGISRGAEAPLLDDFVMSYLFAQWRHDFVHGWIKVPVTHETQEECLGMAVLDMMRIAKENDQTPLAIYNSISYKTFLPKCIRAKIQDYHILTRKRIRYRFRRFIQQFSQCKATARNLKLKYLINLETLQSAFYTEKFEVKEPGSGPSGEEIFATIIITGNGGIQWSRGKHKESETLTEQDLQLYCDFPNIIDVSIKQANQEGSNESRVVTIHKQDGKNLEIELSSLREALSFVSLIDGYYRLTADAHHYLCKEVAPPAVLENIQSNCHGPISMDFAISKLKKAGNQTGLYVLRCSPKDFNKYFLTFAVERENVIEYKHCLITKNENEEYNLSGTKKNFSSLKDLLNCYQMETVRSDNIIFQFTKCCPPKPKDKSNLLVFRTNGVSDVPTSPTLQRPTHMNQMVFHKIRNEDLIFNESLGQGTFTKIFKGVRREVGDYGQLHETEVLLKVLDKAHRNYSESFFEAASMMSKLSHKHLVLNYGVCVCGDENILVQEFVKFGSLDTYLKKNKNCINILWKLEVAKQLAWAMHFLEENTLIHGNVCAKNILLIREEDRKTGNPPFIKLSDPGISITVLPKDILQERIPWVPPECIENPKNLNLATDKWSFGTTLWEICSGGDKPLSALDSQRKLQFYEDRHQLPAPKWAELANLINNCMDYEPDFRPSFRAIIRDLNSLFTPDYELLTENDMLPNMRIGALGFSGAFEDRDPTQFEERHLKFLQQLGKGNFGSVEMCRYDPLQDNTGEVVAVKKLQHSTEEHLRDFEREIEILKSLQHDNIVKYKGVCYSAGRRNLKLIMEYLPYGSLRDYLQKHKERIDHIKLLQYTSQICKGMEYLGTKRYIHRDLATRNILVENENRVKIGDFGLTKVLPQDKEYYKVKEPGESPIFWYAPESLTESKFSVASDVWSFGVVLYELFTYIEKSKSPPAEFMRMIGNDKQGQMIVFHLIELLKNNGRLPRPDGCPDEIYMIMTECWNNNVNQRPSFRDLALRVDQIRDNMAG

Chain of SRC (P12931 2-536): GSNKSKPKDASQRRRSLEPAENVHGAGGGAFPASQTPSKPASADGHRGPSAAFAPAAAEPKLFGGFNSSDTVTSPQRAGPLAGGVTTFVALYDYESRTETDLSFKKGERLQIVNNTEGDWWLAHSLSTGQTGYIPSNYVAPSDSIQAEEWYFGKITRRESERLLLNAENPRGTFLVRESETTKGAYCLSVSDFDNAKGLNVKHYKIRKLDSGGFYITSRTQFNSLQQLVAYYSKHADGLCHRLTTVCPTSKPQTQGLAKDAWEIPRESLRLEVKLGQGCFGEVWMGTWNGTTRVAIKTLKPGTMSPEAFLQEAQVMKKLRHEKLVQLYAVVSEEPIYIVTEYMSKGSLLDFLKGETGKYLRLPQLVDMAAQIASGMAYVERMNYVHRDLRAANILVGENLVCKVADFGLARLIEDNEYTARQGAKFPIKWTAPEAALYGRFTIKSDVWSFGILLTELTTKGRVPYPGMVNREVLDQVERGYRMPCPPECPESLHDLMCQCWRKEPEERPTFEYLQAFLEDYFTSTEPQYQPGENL

**Q.** What does the source list for `Cc1ccc(Sc2ccccc2N2CCNCC2)c(C)c1` [vortioxetine hydrobromide]?
**A.** IC50 (SRC): 6.5 µM; IC50 (JAK2): 8.53 µM
